Measurements: US20230109157A1, “TOPICALLY APPLICABLE PREPARATION COMPRISING PEPTIDES AS ALLERGEN PROTECTION FOR THE SKIN” (BEIERSDORF AG, priority 2020, published 2023)
Where no end group is shown, it is not given here.

Tests used:
[1] = tested on: interleukin 6 (IL6); test: Interleukin 6 in supernatants of Phenion FTS full skin models (Bio-Plex multiplex immunoassay); format: cell-based, Human; settings: FIG. 4, left bar; peptide alone
Experimental: (§1) The investigations were carried out using Phenion FTS full skin models (Phenion, Henkel). These were maintained for 3 days at 37° C. and 7% CO2 in deep-well plates having a […] pore size in the cell culture inserts. The skin models were maintained in 1.5 ml of air-liquid interface medium without phenol red. The medium was changed daily. The test substances were dissolved in ethanol and incubated at room temperature for 24 h. After culturing for 24 h, 25 μl of the substance solution was dripped onto a sterile filter paper that had previously been laid on the skin model. The barrier peptide (0.5 mM AcRFAACAA) had previously been applied to the model as a solution in 100 mM phosphate buffer (pH 7.5). Alternatively, the barrier peptide was applied in a formulation having a content of 0.25% by weight.
(§2) After culturing for a further 24 h, the models were harvested and one half embedded in OCT mounting medium (VWR Q-Path Chemicals), the other half snap-frozen in liquid nitrogen. The supernatant of each model was collected and stored at −20° C.
The supernatants were then analyzed (FIGS. 2, 3 and 4).
The supernatants of the Phenion FTS models were analyzed using the Bio-Plex Pro Human Cytokine Screening Panel (Bio-Rad) according to the manufacturer's protocol. […] The cytokine concentrations are calculated on the basis of the standard curves from the Bioplex system. […]

[2] = tested on: Phenion skin models; test: H&E staining of cryosections of Phenion skin models; format: cell-based; settings: FIG. 5B; 0.5 mM peptide (control)
Experimental: as §1, §2
In further investigations, frozen sections were thawed and incubated for 10 min in 3.7% paraformaldehyde at RT. After three PBS wash steps and one minute in distilled water, they are stained for 3 min in hematoxylin solution. […]

[3] = Direct peptide reactivity assay (DPRA) with urushiols, Ellman's reagent, 24 h; settings: FIG. 9; urushiols C15:1, C15:2, C15:3 (structures I-V); 24 h reaction, n=3
Experimental: FIGS. 7A-E, 8, and 9 show investigations into the reactivity of peptides of the invention with allergens over time (x-axis) and after 24 h. The absorbance is plotted on the y-axis. The peptide-allergen reactions were realized according to a direct peptide reactivity assay. The test is referred to as the in-chemico method, that is to say no cells are used, but a chemical reaction is carried out.
The native, still-unbound peptide is detected by reaction with Ellman's reagent and corresponding absorbance measurement. The direct peptide reactivity assay (DPRA) is a chemical method for predicting epidermal protein binding. DPRA uses for example HPLC to measure the depletion of peptides in solution after exposure to test chemicals.
In the DPRA method, the absorbance at 415 nm is determined as the measured variable.
The allergen concentration is in the investigations carried out a standard 5 mM and thus 10 times the concentration of the peptide used (0.5 mM).
The reaction courses shown in FIGS. 8 and 9 were determined colorimetrically through the reaction of the peptide with Ellmann's reagent in a photometer. In this reaction, DTNB ((5,5′-dithiobis-2-nitrobenzoic acid, Ellmann's reagent) is cleaved and attached to the SH residue of the amino acid cysteine of the peptides of the invention (Ac-RFAACAA, RFAACAA). […]

interleukin 6 (IL6) concentration, peptide on its own [1]	skin model histology (H&E), peptide alone [2]	Substance	reactivity and thus protective activity against urushiols [3]
unchanged	unchanged	Ac-RFAACAA [Ac-RFAACAA, acetylarginine-phenylalanine-alanine-alanine-cysteine-alanine-alanine]	
		RFAACAA [Arg Phe Ala Ala Cys Ala Ala]	very high reactivity
